Legend:
[1] = tested on: Mycobacterium tuberculosis Erdman (autoluminescent); assay: FIC90 (Loewe) at 90% inhibition (log2); higher = more antagonistic
Experimental: (§1)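 DiaMOND equipotent two-drug combination dose responses against autoluminescent M. tuberculosis Erdman in 8 in vitro models. Read-out is OD600, or luminescence for the intracellular and dormancy models, normalised to untreated wells. Hill-fit Einf, AUC25 and GRinf are potency metrics; FIC50 and FIC90 are Loewe-additivity fractional inhibitory concentrations, given as log2 (negative = synergy). Replicates are averaged.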

[2] = tested on: Mycobacterium tuberculosis Erdman (autoluminescent); assay: FIC50 (Loewe) at 50% inhibition (log2); higher = more antagonistic
Experimental: as §1

[3] = tested on: Mycobacterium tuberculosis Erdman (autoluminescent); assay: Einf, fitted maximum growth inhibition of combination (fraction); higher = stronger maximal inhibition
Experimental: as §1

[4] = tested on: Mycobacterium tuberculosis Erdman (autoluminescent); assay: AUC25, normalised area under dose response up to IC25 (fraction (0-1)); higher = more potent at low dose
Experimental: as §1

[5] = tested on: Mycobacterium tuberculosis Erdman (autoluminescent); assay: GRinf, maximum normalised growth rate inhibition (unitless (-1 to 1)); higher = less effect (negative = killing)
Experimental: as §1

COc1nc2ccc(Br)cc2cc1[C@@H](c1ccccc1)[C@@](O)(CCN(C)C)c1cccc2ccccc12 [bedaquiline] + O=[N+]([O-])c1cn2c(n1)OC[C@@H](OCc1ccc(OC(F)(F)F)cc1)C2 [pretomanid]
Conditions | AUC25, [4] | Einf, [3] | FIC50, [2] | FIC90, [1] | GRinf, [5]
in vitro model: acidic pH 5.7, time point: constant (~7 days, model-specific) | 0.121 | 0.879 | 0.399 | 0.503 | -0.293
in vitro model: acidic pH 5.7, time point: terminal (~4-5 doublings, model-specific) | 0.0888 | 0.973 | 0.169 | 0.292 | -0.358
in vitro model: intracellular J774, time point: constant = terminal | – | 1 | – | 0.703 | -0.579

Conditions | AUC25, [4] | Einf, [3] | FIC50, [2] | FIC90, [1] | GRinf, [5]
in vitro model: butyrate, time point: constant (~7 days, model-specific) | 0.105 | 0.96 | 0.76 | 1.49 | -0.17
in vitro model: butyrate, time point: terminal (~4-5 doublings, model-specific) | 0.0889 | 0.99 | 0.874 | 1.5 | -0.346
in vitro model: cholesterol 0.05 mM, time point: constant (~7 days, model-specific) | 0.118 | 0.737 | 0.484 | – | -0.158
in vitro model: cholesterol 0.05 mM, time point: terminal (~4-5 doublings, model-specific) | 0.0926 | 0.928 | 0.466 | 1.33 | -0.23
in vitro model: cholesterol-high 0.2 mM, time point: constant (~7 days, model-specific) | 0.0648 | 0.883 | 0.673 | 1.04 | -0.183
in vitro model: cholesterol-high 0.2 mM, time point: terminal (~4-5 doublings, model-specific) | 0.0479 | 0.991 | 0.686 | 0.706 | -0.576
in vitro model: dormancy (butyrate + nitrate, low O2), time point: constant (~7 days, model-specific) | 0.0466 | 0.927 | -0.341 | -0.857 | 0.169
in vitro model: dormancy (butyrate + nitrate, low O2), time point: terminal (~4-5 doublings, model-specific) | 0.0475 | 0.98 | -0.522 | -1.14 | -0.0913
in vitro model: standard 7H9 glycerol, time point: constant = terminal | 0.0817 | 0.982 | 0.0934 | 0.269 | -0.196
in vitro model: valerate, time point: constant (~7 days, model-specific) | 0.136 | 0.935 | 0.105 | 1.2 | -0.238
in vitro model: valerate, time point: terminal (~4-5 doublings, model-specific) | 0.099 | 0.96 | 0.0653 | 0.71 | -0.0796

COc1nc2ccc(Br)cc2cc1[C@@H](c1ccccc1)[C@@](O)(CCN(C)C)c1cccc2ccccc12 [bedaquiline] + CC[C@@H](CO)NCCN[C@@H](CC)CO [ethambutol]
Conditions | AUC25, [4] | Einf, [3] | FIC50, [2] | FIC90, [1] | GRinf, [5]
in vitro model: acidic pH 5.7, time point: constant (~7 days, model-specific) | 0.133 | 0.831 | 0.111 | – | -0.514
in vitro model: acidic pH 5.7, time point: terminal (~4-5 doublings, model-specific) | 0.0618 | 0.961 | 0.595 | -0.0708 | -0.42
in vitro model: intracellular J774, time point: constant = terminal | – | 1 | – | -0.00203 | -0.728

Conditions | AUC25, [4] | Einf, [3] | FIC50, [2] | FIC90, [1] | GRinf, [5]
in vitro model: butyrate, time point: constant (~7 days, model-specific) | 0.0683 | 0.948 | 0.277 | – | -0.0865
in vitro model: butyrate, time point: terminal (~4-5 doublings, model-specific) | 0.0577 | 0.978 | 0.142 | -0.418 | -0.0993
in vitro model: cholesterol 0.05 mM, time point: constant (~7 days, model-specific) | 0.0646 | 0.736 | 0.507 | – | -0.236
in vitro model: cholesterol 0.05 mM, time point: terminal (~4-5 doublings, model-specific) | 0.0688 | 0.956 | 0.89 | 0.731 | -0.404
in vitro model: cholesterol-high 0.2 mM, time point: constant (~7 days, model-specific) | 0.026 | 0.994 | 0.819 | – | -0.858
in vitro model: cholesterol-high 0.2 mM, time point: terminal (~4-5 doublings, model-specific) | 0.0312 | 1 | 0.85 | 0.757 | -0.687
in vitro model: dormancy (butyrate + nitrate, low O2), time point: constant (~7 days, model-specific) | 0.139 | 0.866 | 1.04 | – | 0.338
in vitro model: dormancy (butyrate + nitrate, low O2), time point: terminal (~4-5 doublings, model-specific) | 0.131 | 0.995 | 0.336 | 1.24 | -0.154
in vitro model: standard 7H9 glycerol, time point: constant = terminal | 0.0591 | 0.949 | 0.176 | -0.108 | -0.0657
in vitro model: valerate, time point: constant (~7 days, model-specific) | 0.108 | 0.953 | 0.0258 | – | -0.286
in vitro model: valerate, time point: terminal (~4-5 doublings, model-specific) | 0.0819 | 0.979 | 0.247 | -0.129 | -0.0998

COc1nc2ccc(Br)cc2cc1[C@@H](c1ccccc1)[C@@](O)(CCN(C)C)c1cccc2ccccc12 [bedaquiline] + CO[C@H]1/C=C/O[C@@]2(C)Oc3c(C)c(O)c4c(O)c(c(/C=N/N5CCN(C)CC5)c(O)c4c3C2=O)NC(=O)/C(C)=C\C=C\[C@H](C)[C@H](O)[C@@H](C)[C@@H](O)[C@@H](C)[C@H](OC(C)=O)[C@@H]1C [rifampicin]
Conditions | AUC25, [4] | Einf, [3] | FIC50, [2] | FIC90, [1] | GRinf, [5]
in vitro model: acidic pH 5.7, time point: constant (~7 days, model-specific) | 0.11 | 0.966 | 0.235 | -0.844 | -0.709
in vitro model: acidic pH 5.7, time point: terminal (~4-5 doublings, model-specific) | 0.0796 | 0.995 | 0.0554 | -0.216 | -0.353
in vitro model: intracellular J774, time point: constant = terminal | – | 0.963 | – | 0.648 | -0.255

Conditions | AUC25, [4] | Einf, [3] | FIC50, [2] | FIC90, [1] | GRinf, [5]
in vitro model: butyrate, time point: constant (~7 days, model-specific) | 0.112 | 0.958 | 0.393 | 0.174 | -0.181
in vitro model: butyrate, time point: terminal (~4-5 doublings, model-specific) | 0.0949 | 0.988 | 0.398 | 0.429 | -0.18
in vitro model: cholesterol 0.05 mM, time point: constant (~7 days, model-specific) | 0.104 | 0.722 | 0.0154 | – | -0.0966
in vitro model: cholesterol 0.05 mM, time point: terminal (~4-5 doublings, model-specific) | 0.0851 | 0.919 | 0.343 | -0.364 | -0.181
in vitro model: cholesterol-high 0.2 mM, time point: constant (~7 days, model-specific) | 0.0637 | 0.982 | 0.194 | -0.00523 | -0.639
in vitro model: cholesterol-high 0.2 mM, time point: terminal (~4-5 doublings, model-specific) | 0.058 | 1 | 0.318 | 0.223 | -0.64
in vitro model: dormancy (butyrate + nitrate, low O2), time point: constant (~7 days, model-specific) | 0.0984 | 0.921 | 0.234 | 0.896 | 0.149
in vitro model: dormancy (butyrate + nitrate, low O2), time point: terminal (~4-5 doublings, model-specific) | 0.0644 | 0.985 | 0.332 | 0.603 | -0.312
in vitro model: standard 7H9 glycerol, time point: constant = terminal | 0.0718 | 0.93 | 0.22 | 0.326 | -0.0375
in vitro model: valerate, time point: constant (~7 days, model-specific) | 0.0727 | 0.914 | 0.714 | – | -0.108
in vitro model: valerate, time point: terminal (~4-5 doublings, model-specific) | 0.0313 | 0.956 | 0.779 | 0.467 | -0.0734

Reference: the supplement of paper PMC8617591
